Data as given in patent US7815905B2, “Methods of increasing insulin sensitivity or decreasing insulin secretion by administering corticotropin releasing factor receptor-2 inhibitors” (Research Development Foundation, priority 2006, dated 2010).
“Also recorded” adds a separate entry of the source. Ends that are not written are not given here.

Key:
Ucn 2 null mice [1] = test: Glucose tolerance test (GTT) in Ucn 2 null mice; format: in vivo, mouse; details: fasted male Ucn 2 null mice; 0.1 μg/kg IP 20 min prior to glucose 2 g/kg
Procedure: (§1) FIG. 1a-f: Metabolic phenotype of Ucn 2 null mice. […] The ability of the Ucn 2 null mice and wild type littermates to handle a glucose load was assessed using a standard glucose tolerance test (see example 1). Fasted male mice were injected intraperitoneally (IP) with glucose (2 g/kg body weight) and blood glucose levels were measured before and at 15, 30, 60, 90 and 120 min following glucose injection. […] Fasted male Ucn 2 null mice were injected IP with saline or with 0.1 μg/kg body weight Ucn 2, 20 min prior to glucose injection (2 g/kg body weight) and blood glucose levels were measured before and at 15, 30, 60 and 90 min following glucose injection. […] Fasted male wild type mice were injected IP with saline or with astressin2B (30 μg/kg body weight), 20 min prior to glucose injection (2 g/kg body weight), and blood glucose levels were measured before and at 15, 30, 60 and 90 min following glucose injection. (d) The enhanced glucose tolerance in the Ucn 2 null mice is not due to increased insulin secretion. Fasted male mice were injected with glucose (3 g/kg body weight, IP) and blood samples were collected at 2, 5, 15 and 30 min following glucose injection and insulin was measured by radioimmunoassay. […] Fasted male mice were injected with insulin (0.75 U/kg body weight, IP) and blood glucose levels were measured before and at 15, 30, 60 and 90 min following insulin injection. […]

Ucn 2 null mice [2] = test: Insulin tolerance test (ITT) in Ucn 2 null mice; format: in vivo, mouse; details: fasted male Ucn 2 null mice; 0.1 μg/kg IP 20 min prior to insulin 0.75 U/kg
Procedure: as §1

[3] = system: insulin signaling in C2C12 myotubes; test: Phosphorylation studies of insulin signaling in C2C12 myotubes; format: cell-based
Procedure: FIG. 3a-l: Urocortin 2 effects on muscle glucose uptake are mediated by inhibition of insulin signaling. (a-f). Ucn 2 inhibits the insulin-induced Akt and ERK1/2 phosphorylation but not the insulin receptor phosphorylation. Differentiated C2C12 myotubes were pre-incubated with or without Ucn 2 peptide (0.1, 1 or 10 nM) for 1 hour prior to insulin treatment (10 nM, 5 min). Cell lystates were resolved using 4-12% gradient polyacrylamide gels. Gels were electrophorectically transferred to membranes and probed with antibodies specific for the phospho proteins pAkt (Ser 473), pERK1/2 or pIR (Tyr1146). Stimulation of Akt, ERK or insulin receptor (IR) activation was calculated by fold activation of the phosphorylated form normalized to total and compared with the untreated controls (a, d and f, graphs). […] (g-j) Ucn 2 treatment increases the phosphorylation of serine residue 307 and not the tyrosin phosphorylation of IRS-1. Myotube cells, treated with or without PKA inhibitor (H-89), were incubated with insulin and different concentrations of Ucn 2. IRS-1 immunoprecipitated proteins were electrophoresed as before and the immunoblots were probed for phosphorylated tyrosin (g), phosphorylated serine 307 IRS-1 (i) and total IRS-1 (g, i). […] (k) The effect of Ucn 2 on [^3H]2-deoxy-D-glucose uptake in differentiated C2C12 myotubes. Cells were incubated for 2 hours in low glucose, serum free medium and treated with Ucn 2 (0.1, 1 or 10 nM) or without (control) for 30 min prior to insulin administration (10 nM). Glucose uptake was measured 5 min following exposure to [^3H]2-deoxy-D-glucose. Non-specific uptake was measured by incubating muscle tissue with cytochalasin B, which binds to the glucose uptake transporter (GLUT) and inhibits glucose transport into the cell. Specific uptake was calculated by subtracting non specific from total glucose. (l) Schematic representation of the putative cellular mechanisms mediating the effect of Ucn 2 and CRFR2 on the insulin signaling and glucose uptake in skeletal muscle cells. * indicates p<0.05 vs. no treatment. # indicates p<0.05 vs. insulin treatment (b, d, f) or p<0.05 vs. insulin treatment and Ucn 2 (i).
Differentiated C2C12 myotubes were pre-incubated with or without Ucn 2 peptide (0.1, 1 or 10 nM) for 1 hour prior to insulin treatment (10 nM, 5 min). Cells were harvested immediately in 100 μl of sample treatment buffer [STB, 50 mM Tris (pH 6.8), 100 mM dithiothreitol, 2% (wt/vol) sodium dodecyl sulfate, 0.1% (wt/vol) bromphenol blue, and 10% (wt/vol) glycerol]. The samples were boiled for 5 min, proteins were electrophoresed on 4-12% sodium dodecyl sulfate-polyacrylamide gradient gel (Invitrogen Life Technologies), subsequently transferred onto nitrocellulose membranes, and probed with antibodies specific for phosphorylated Akt (Ser 473, Cell Signaling Technology, Inc., Beverly, Mass.), phosphorylated ERK1/2-p42, 44 (Santa Cruz Biotechnology, Inc., Santa Cruz, Calif.), phosphorylated insulin receptor (Tyr 1146, Cell Signaling Technology, Inc.), or phosphorylated IRS1 (Ser 307, Upstate Cell Signaling Solutions, Lake placid, NY). The membranes were washed with phosphate buffer saline containing 0.05% (vol/vol) Tween 20 and incubated with horseradish peroxidase-conjugated anti mouse or rabbit IgG raised in sheep (Amersham Biotech Pharmacia). Immunoreactive proteins were visualized using Super Signal West Pico Chemiluminescent substrate (Pierce, Rockford, Ill.). The relative protein levels were determined using densitometry (Image quant 1.2) by probing the membranes with antibodies directed against total proteins.

C2C12 myotubes = test: [3H]2-deoxy-D-glucose uptake in C2C12 myotubes; format: cell-based; details: 0.1, 1 or 10 nM for 30 min prior to insulin 10 nM
Procedure: FIG. 3a-l: Urocortin 2 effects on muscle glucose uptake are mediated by inhibition of insulin signaling. (a-f). Ucn 2 inhibits the insulin-induced Akt and ERK1/2 phosphorylation but not the insulin receptor phosphorylation. Differentiated C2C12 myotubes were pre-incubated with or without Ucn 2 peptide (0.1, 1 or 10 nM) for 1 hour prior to insulin treatment (10 nM, 5 min). Cell lystates were resolved using 4-12% gradient polyacrylamide gels. Gels were electrophorectically transferred to membranes and probed with antibodies specific for the phospho proteins pAkt (Ser 473), pERK1/2 or pIR (Tyr1146). Stimulation of Akt, ERK or insulin receptor (IR) activation was calculated by fold activation of the phosphorylated form normalized to total and compared with the untreated controls (a, d and f, graphs). […] (g-j) Ucn 2 treatment increases the phosphorylation of serine residue 307 and not the tyrosin phosphorylation of IRS-1. Myotube cells, treated with or without PKA inhibitor (H-89), were incubated with insulin and different concentrations of Ucn 2. […] Glucose uptake was measured 5 min following exposure to [^3H]2-deoxy-D-glucose. Non-specific uptake was measured by incubating muscle tissue with cytochalasin B, which binds to the glucose uptake transporter (GLUT) and inhibits glucose transport into the cell. Specific uptake was calculated by subtracting non specific from total glucose. […]

[4] = 0.1, 1 or 10 nM for 1 hour prior to insulin 10 nM, 5 min
[5] = IRS-1 immunoprecipitates, insulin and Ucn 2

Which results are given for “Ucn 2: Urocortin 2, member of the CRF family, CRFR2 agonist; synthetic peptide (IVLSLDVPIGLLQILLEQARARAAREQATTNARILARVGHC; ends and bridges not checked; UniProt Q96RP3 72-112, looked up)”?
blood glucose in glucose tolerance test (Ucn 2 null mice [1]): restores blood glucose to wild type levels; blood glucose in insulin tolerance test (Ucn 2 null mice [2]): restored blood glucose levels to those of wild type mice; also recorded: restores blood glucose to wild type levels; insulin-induced ERK1/2 phosphorylation [3, 4]: reduces; also recorded: inhibited; also recorded: dose dependently inhibits; insulin-induced phosphorylation of Akt (Ser 473) [3, 4]: reduces; also recorded: inhibits the insulin-induced phosphorylation of Akt in a dose dependent fashion; also recorded: dose dependently inhibits; insulin-induced phosphorylation of the insulin receptor (Tyr1146) [3, 4]: no significant differences; phosphorylation of IRS-1 on serine residue 307 [3, 5]: greatly increases; also recorded: strongly increases; tyrosine phosphorylation of IRS-1 in response to insulin [3, 5]: remains unchanged; insulin induced glucose uptake (C2C12 myotubes): reduces; also recorded: dose dependently inhibited
